Measured values as given in patent US20220220152A1, “BIVALENT ANTAGONISTS OF INHIBITORS OF APOPTOSIS PROTEINS” (Hepagene Therapeutics (HK) Limited, priority 2019, published 2022).

What was measured:
[1] = target: T1, cIAP2-BIR3 (Homo sapiens, UniProt Q13489); experiment: cIAP2-BIR3 fluorescence polarization binding assay; details: FP, probe AbuRPFK-5FAM (SM5F) 5 nM, cIAP2-BIR3 80 nM, 60 min at 25° C.
T1 construct: cIAP2-BIR3; purchased Reaction Biology APT-11-372
Text: (§1) IAPs are one main cause of cancer development and may result from overexpression of anti-apoptotic proteins. This protocol establishes three binding assays for […] Bir3 domain, cIAP1 and cIAP2 using FP (fluorescence polariation) technology. The fluorescence probe used is a synthetic peptide conjugated to 5-carboxyfluorescein (AbuRPFK-5FAM). The fluorescence polarization value (mP) was detected by Envision, which was used to reflect the binding degree of protein and fluorescent marker.
(§2) • a. Prepare 100 times of the final cpd concentration in appropriate tube and transfer 5 uL cpd to 45 μL 1× reaction buffer with 10% DMSO • b. The final reference cpd concentration is 10000, 3333.3, 1111.1, 370.4, 123.4, 41.2, 13.7, 4.57, 1.52, 0.51, 0.17 and 0 nM. So the 100 times of the concentration is 1000, 333.3, 111.1, 37.04, 12.34, 4.12, […], 0.15, 0.05, 0.017 and 0 μM. The final test cpds concentration is 3333.3, 1111.1, 370.4, 123.4, 41.2, 13.7, 4.57, 1.52, 0.51, 0.17, 0.057 and 0 nM. So the 100 times of the concentration is 333.3, 111.1, 37.04, 12.34, 4.12, […], 0.15, 0.05, 0.017, 0.0057 and […] • c. Add 8 μL/well each dose enzyme to 384 wen microplate (ProxiPlate-384 F Plus, 6008260) using multichannel pipette, prepared in Table 3. • d. Centrifuge at 1000 rpm • e. Add 2 μL/well cpd to 384 well microplate (ProxiPlate-384 F Plus, 6008260) using multichannel pipette, prepared in step a). • f. Centrifuge at 1000 rpm RT, 15 min. • g Start the assay by adding 10 uL/well substrate (prepared in Table 4) to the same 384 wen microplate using multichannel pipette. • h. Centrifuge at 1000 rpm. • i. Cover the assay plate and incubate for 60 min at 25° C. • j. Read on Envision 2104 for mP and plot the IC50s with mP values. • k. Data analysis: IC50s were determined based on a non-linear regression analysis of data collected.

[2] = target: T2, XIAP-BIR3 (Homo sapiens, UniProt P98170); experiment: XIAP-BIR3 fluorescence polarization binding assay; details: FP, probe AbuRPFK-5FAM (SM5F) 5 nM, XIAP-BIR3 40 nM, 60 min at 25° C.
T2 construct: XIAP-BIR3; purchased Reaction Biology APT-11-374
Text: as §1, §2

[3] = target: T3, cIAP1-BIR3 (Homo sapiens, UniProt Q13490); experiment: cIAP1-BIR3 fluorescence polarization binding assay; details: FP, probe AbuRPFK-5FAM (SM5F) 5 nM, cIAP1-BIR3 15 nM, 60 min at 25° C.
T3 construct: cIAP1-BIR3; purchased Reaction Biology APT-11-370
Text: as §1, §2

T1 sequence (Q13489 238-349 limits assumed): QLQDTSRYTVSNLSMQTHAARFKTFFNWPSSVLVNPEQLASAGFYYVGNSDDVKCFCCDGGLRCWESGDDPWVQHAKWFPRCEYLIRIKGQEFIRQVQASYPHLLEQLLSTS
T3 sequence (Q13490 253-363 limits assumed): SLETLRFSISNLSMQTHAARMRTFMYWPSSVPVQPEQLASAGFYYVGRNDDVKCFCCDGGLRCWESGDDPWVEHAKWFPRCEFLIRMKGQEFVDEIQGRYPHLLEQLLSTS
T2 sequence (P98170 241-356 limits assumed): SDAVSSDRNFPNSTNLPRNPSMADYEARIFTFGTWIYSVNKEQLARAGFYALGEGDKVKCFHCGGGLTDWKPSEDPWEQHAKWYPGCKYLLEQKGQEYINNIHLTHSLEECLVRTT

Row | IC50 [1] | IC50 [2] | IC50 [3] | Compound
1 | 1 to 10 nM | 10 to 100 nM | 1 to 10 nM | CN[C@@H](C)C(=O)N[C@H](C(=O)N1C[C@@H](O)C[C@H]1C(=O)N[C@@H]1CCCc2c(-c3ccc(-c4cccc5c4CCC[C@H]5NC(=O)[C@@H]4C[C@H](O)CN4C(=O)[C@@H](NC(=O)[C@H](C)NC)C4CCCCC4)cc3)cccc21)C1CCCCC1 [Compound III-K, (2S,4S)-1-[(2S)-2-cyclohexyl-2-[(2S)-2-(methylamino)propanamido]acetyl]-N-[(1R)-5-[4-[(5R)-5-[(2S,4S)-1-[(2S)-2-cyclohexyl-2-[(2S)-2-(methylamino)propanamido]acetyl]-4-hydroxypyrrolidine-2-amido]-5,6,7,8-tetrahydmnaphthalen-1-yl]phenyl]-1,2,3,4-tetrahydronaphthalen-1-yl]-4-hydroxypyrrolidine-2-carboxamide]
2 | 100 to 1000 nM | 100 to 1000 nM | 10 to 100 nM | CN[C@@H](C)C(=O)N[C@H](C(=O)N1CCC[C@H]1C(=O)N[C@@H]1CCCc2cc(-c3ccc(-c4ccc5c(c4)CCC[C@H]5NC(=O)[C@@H]4CCCN4C(=O)[C@@H](NC(=O)[C@H](C)NC)C4CCCCC4)cc3)ccc21)C1CCCCC1 [Compound III-L, (2S)-1-[(2S)-2-cyclohexyl-2-[(2S)-2-(methylamino)propanamido]acetyl]-N-[(1R)-6-[4-[(5R)-5-[(2S)-1-[(2S)-2-cyclohexyl-2-[(2S)-2-(methylamino)propanamido]acetyl]pyrolidine-2-amido]-5,6,7,8-tetrahydronaphthalen-2-yl]phenyl]-1,2,3,4-tetrahydronaphthalen-1-yl]pyrrolidine-2-carboxamide]
3 | 10 to 100 nM | 10 to 100 nM | 1 to 10 nM | CN[C@@H](C)C(=O)N[C@H](C(=O)N1C[C@@H](O)C[C@H]1C(=O)N[C@@H]1CCCc2c(-c3cccc4c3CCC[C@H]4NC(=O)[C@@H]3C[C@H](O)CN3C(=O)[C@@H](NC(=O)[C@H](C)NC)C3CCCCC3)cccc21)C1CCCCC1 [Compound V-L, (2S,4S)-1-[(2S)-2-cyclohexyl-2-[(2S)-2-(methylamino)propanamido]acetyl]-N-[(5R,5′R)-5′-[(2S,4S)-1-[(2S)-2-cyclohexyl-2-[(2S)-2-(methylamino)propanamido]acetyl]-4-hydroxypyrrolidine-2-amido]-5H,5′H,6H,6′H,7H,7′H,8H,8′H-[1,1′-binaphthalen]-5-yl]-4-hydroxypyrrolidine-2-carboxamide]
4 | 1 to 10 nM | 10 to 100 nM | 1 to 10 nM | CN[C@@H](C)C(=O)N[C@H](C(=O)N1CCC[C@H]1C(=O)N[C@@H]1CCCc2c(NC(=O)c3cccc4c3CCC[C@H]4NC(=O)[C@@H]3CCCN3C(=O)[C@@H](NC(=O)[C@H](C)NC)C3CCCCC3)cccc21)C1CCCCC1 [Compound VII, (S)-1-((S)-2-Cyclohexyl-2-((S)-2-(methylamino)propanamido)acetyl)-N—((R)-5-(((R)-5-((S)-1-((S)-2-cyclohexyl-2-((S)-2-(methylamino)propanamido)acetyl)pyrrolidine-2-carboxamido)-5,6,7,8-tetrahydronaphthalen-1-yl)carbamoyl)-1,2,3,4-tetrahydronaphthalen-1-yl)pyrrolidine-2-carboxamide]
5 | 10 to 100 nM | 10 to 100 nM | 1 to 10 nM | CC[C@H](NC(=O)[C@H](C)NC)C(=O)N1CCC[C@H]1C(=O)N[C@@H]1CCc2c(-c3cccc4c3CC[C@H]4NC(=O)[C@@H]3CCCN3C(=O)[C@H](CC)NC(=O)[C@H](C)NC)cccc21 [Compound V-O, (2S,2'S)—N,N′-((1R,1′R)-2,2′,3,3′-tetrahydro-1H,1′H-[4,4′-biindene]-1,1′-diyl)bis(1-((S)-2-((S)-2-(methylamino)propanamido)butanoyl)pyrrolidine-2-carboxamide)]

Further lines, the compound ahead of its results:

Row | Compound | IC50 [1] | IC50 [2] | IC50 [3]
6 | CC[C@H](NC(=O)[C@H](C)NC)C(=O)N1CCC[C@H]1C(=O)N[C@@H]1CCCc2c(-c3cccc(-c4cccc5c4CCC[C@H]5NC(=O)[C@@H]4CCCN4C(=O)[C@H](CC)NC(=O)[C@H](C)NC)c3)cccc21 [III-D, (2S)-1-[(2S)-2-[(2S)-2-(methylamino)propanamido]butanoyl]-N-[(1R)-5-[3-[(5R)-5-[(2S)-1-[(2S)-2-[(2S)-2-(methylamino)propanamido]butanoyl]pyrrolidine-2-amido]-5,6,7,8-tetrahydronaphthalen-1-yl]phenyl]-1,2,3,4-tetrahydronaphthalen-1-yl]pyrrolidine-2-carboxamide] | 10 to 100 nM | 10 to 100 nM | 1 to 10 nM
7 | CN[C@@H](C)C(=O)N[C@H](C(=O)N1CCC[C@H]1C(=O)N[C@@H]1CCCc2c1cccc2N1CC2CN(c3cccc4c3CCC[C@H]4NC(=O)[C@@H]3CCCN3C(=O)[C@@H](NC(=O)[C@H](C)NC)C3CCCCC3)CC2C1)C1CCCCC1 (stereo partly drawn) [Compound VIII, (2S)-1-[(2S)-2-cyclohexyl-2-[(2S)-2-(methylamino)propanamido]acetyl]-N-[(1R)-5-[5-[(5R)-5-[(2S)-1-[(2S)-2-cyclohexyl-2-[(2S)-2-(methylamino)propanamido]acetyl]pyrrolidine-2-amido]-5,6,7,8-tetrahydronaphthalen-1-yl]-hexahydropyrrolo[3,4-c]pyrrol-2-yl]-1,2,3,4-tetrahydmnaphthalen-1-yl]pyrrolidine-2-carboxamide] | 1 to 10 nM | 10 to 100 nM | 1 to 10 nM
8 | CN[C@@H](C)C(=O)N[C@H](C(=O)N1CCC[C@@H]1C(=O)N[C@@H]1CCCc2ccc(-c3ccc(-c4ccc5c(c4)[C@H](NC(=O)[C@@H]4CCCN4C(=O)[C@@H](NC(=O)[C@H](C)NC)C4CCCCC4)CCC5)cc3)cc21)C1CCCCC1 [Compound III-M, (2S)-1-[(2S)-2-cyclohexyl-2-[(2S)-2-(methylamino)propanamido]acetyl]-N-[(1R)-7-[4-[(8R)-8-[(2R)-1-[(2S)-2-cyclohexyl-2-[(2S)-2-(methylamino)propanamido]acetyl]pyrrolidine-2-amido]-5,6,7,8-tetrahydronaphthalen-2-yl]phenyl]-1,2,3,4-tetrahydronaphthalen-1-yl]pyrrolidine-2-carboxamide] | 100 to 1000 nM | > 1000 nM | 10 to 100 nM
9 | CN[C@@H](C)C(=O)N[C@H](C(=O)N1CCC[C@H]1C(=O)N[C@@H]1CCCc2c(OCCN3CCN(CCOc4cccc5c4CCC[C@H]5NC(=O)[C@@H]4CCCN4C(=O)[C@@H](NC(=O)[C@H](C)NC)C4CCCCC4)CC3)cccc21)C1CCCCC1 [Compound IX, (2S)-1-[(2S)-2-cyclohexyl-2-[(2S)-2-(methylamino)propanamido]acetyl]-N-[(1R)-5-{2-[4-(2-{[(5R)-5-[(2S)-1-[(2S)-2-cyclohexyl-2-[(2S)-2-(methylamino)propanamido]acetyl]pyrolidine-2-amido]-5,6,7,8-tetrahydronaphthalen-1-yl]oxy}ethyl)piperazin-1-yl]ethoxy}-1,2,3,4-tetrahydmnaphthalen-1-yl]pyrrolidine-2-carboxamide] | 10 to 100 nM | 100 to 1000 nM | 1 to 10 nM
10 | CN[C@@H](C)C(=O)N[C@H](C(=O)N1CCC[C@H]1C(=O)N[C@@H]1CCCc2c(-c3ccc(-c4cccc5c4CCC[C@H]5NC(=O)[C@@H]4CCCN4C(=O)[C@@H](NC(=O)[C@H](C)NC)C(C)C)cc3)cccc21)C(C)C [III-N, (2S)-1-[(2S)-3-methyl-2-[(2S)-2-(methylamino)propanamido]butanoyl]-N-[(1R)-5-[4-[(5R)-5-[(2S)-1-[(2S)-3-methyl-2-[(2S)-2-(methylamino)propanamido]butanoyl]pyrolidine-2-amido]-5,6,7,8-tetrahydronaphthalen-1-yl]phenyl]-1,2,3,4-tetrahydronaphthalen-1-yl]pyrrolidine-2-carboxamide] | 10 to 100 nM | 10 to 100 nM | 1 to 10 nM
11 | (2S,4S)-1-((S)-2-cyclohexyl-2-((S)-2-(methylamino)propanamido)acetyl)-N—((R)-5-(2-(2-(((R)-5-((2S,4S)-1-((S)-2-cyclohexyl-2-((S)-2-(methylamino)propanamido)acetyl)-4-hydroxypyrrolidine-2-carboxamido)-5,6,7,8-tetrahydronaphthalen-1-yl)oxy)ethoxy) ethoxy)-1,2,3,4-tetrahydmnaphthalen-1-yl)-4-hydroxypyrrolidine-2-carboxamide Formic Acid [Compound II-C] | 10 to 100 nM | 10 to 100 nM | 1 to 10 nM
